{
  "source": "patent US20260125359A1",
  "about": "“HETEROARYL COMPOUNDS AS MULTI-TARGET PROTEIN KINASE INHIBITORS” (FUJIAN HAIXI PHARMACEUTICALS CO., LTD., priority 2023, published 2026)",
  "note": "pIC50: −log10 of the molar value.",
  "data": [
    {"tested_on": "M-NFS-60 cells", "experiment": "M-NFS-60 cell in vitro assay (CCK, 48 h, M-CSF factor medium)", "type": "cell-based", "conditions": "M-NFS-60 cells; read-out: M-NFS-60cellassay IC50", "method": "To determine the inhibitory activity of compounds on M-NFS-60 cells.\n• M-NFS-60 cell line (ATCC, Cat. No.: CRL-1838) • RPMI-1640 medium (Gibco, domestic subpackage, Cat. No.: C11875500BT) • Recombinant Mouse CSF1/M-CSF (Sino Biological Inc., Cat. No.: 51112-MNAH) • PAN/Serum (BioTECH, Cat. No.: P30-2602) • Trypsin/0.05% Trypsin-EDTA (Gibco, Cat. No.: 25300-062) • 0.4% Trypan Blue (Sigma, Cat. No.: T8154-20 ml) • Penicillin-Streptomycin (Hyclone, Cat. No.: SV30010) • DMSO (Solarbio, Cat. No.: D8371) • PBS (Solarbio, Cat. No.: P1020) • CCK (AbMole BioScience, Cat. No.: M4839-500Tests)\n• 1) M-CSF factor stock solution: take 10 μg of powdered m-CSF factor, add 0.4 ml of saline, formulate 25 ug/ml and store at −80° C. • 2) M-CSF factor (25 ng/ml) medium: • 1640 (Gibco)+10% PAN+100×Penicillin-Streptomycin+100×M-CSF stock solution • 3) Complete medium: • 1640 (Gibco)+10% PAN+100×Penicillin-Streptomycin • 4) Compound preparation: 2-3 mg of the compound was added to DMSO to formulate a 30 mM stock solution, −80° C. refrigerator storage\n• 1) Cell resuscitation: the frozen cells in the cryovial were thawed rapidly by shaking in a 37° C. water bath, then 4 mL of medium was added. After mixing evenly, they were centrifuged at 125×g for 5 min, and the supernatant was discarded. The cells were resuspended and transferred to the culture flasks, and were cultured in a 5% CO2 fully saturated humidity incubator. • 2) Cell passaging: M-NFS-60 cells are semi-suspension cells, which were collected directly in a 15 mL centrifuge tube, centrifuged at 125×g for 5 min. and the supernatant was discarded. The cells were resuspended and passaged into new culture flasks at a ratio of 1:5 to 1:10. • 3) After the newly resuscitated cells were passaged 1-2 times for cell stabilization, compound inhibition assays were started when the cells were in the logarithmic growth phase. • (a) Cell collection and counting: the same as the cell passaging step, centrifuge in two tubes, one tube with M-CSF factor medium to resuspend the cells, the other tube with complete medium to resuspend the cells. Take 10 μL of cell suspension in each tube, and count the cells by Tepan blue staining. • (b) Dilute the cell solution according to the concentration of inoculated cells respectively, the concentration of M-NFS-60 cells inoculated with factor was 5.56×10^4 cells/mL, and the concentration of inoculated without factor was 5×10^4 cells/mL. • (c) Seed plate: 384 well plate inoculated with M-NFS-60 cells, 36 uL/well, triplicate wells, the number of inoculated cells was equivalent to 2000 cells/well, set with blank control, factor free negative control, normal control, DMSO control and experimental wells. The cells were placed in a 5% CO2 fully saturated humidity incubator for 4 h. • (d) Sampling compounds: 96 well plates were used for compound preparation. The compound solution prepared in advance was diluted to corresponding gradient concentration with DMSO. An appropriate amount of the diluted solution in the previous step was added to an equal volume of factor containing medium. The 96 well plates were centrifuged at 1000 rpm for 5 min, which played the role of defoaming and spinning down droplets and condensation. Remove the 384 well plate from the incubator, add the diluted compound solution into each well sequentially, 4 μL/well; DMSO wells and normal wells were added with corresponding factor containing medium, 4 μL/well. Then it was put into CO2 incubator for 48 h. • (e) After incubation for 48 h, CCK was added to each well, 4 uL, and the plates were placed in the incubator for another 2 h, and then the OD (optical density) value at 450 nm was measured by microplate reader.\nThe IC50 values for each test compound were fitted using professional graphing and analysis software.", "values": [
      {"compound": "Cc1cccc(NC(=O)c2cccc3c2CC[C@@H]3N(C)c2cnc3cnn(C)c3c2)c1F", "note": "[Compound 79, (S)—N-(2-fluoro-3-methylphenyl)-1-(methyl (1-methyl-1H-pyrazolo[4,3-b]pyridin-6-yl)amino)-2,3-dihydro-1H-indene-4-carboxamide]", "pIC50": "> 7.30"},
      {"compound": "Cn1cc2ncc(N[C@H]3CCc4c(Nc5noc(C6(C(F)(F)F)CCC6)n5)cccc43)cc2n1", "note": "[Compound 93h]", "pIC50": "> 7.30"},
      {"compound": "Cc1cccc(NCc2cccc3c2CC[C@@H]3Nc2cncc(-c3cnn(C)c3)n2)c1", "note": "[Compound 59d]", "pIC50": "6.30 to 6.70"},
      {"compound": "Cc1c(Nc2cccc3c2CC[C@@H]3Nc2cncc(-c3cnn(C)c3)c2)noc1C(C)(C)C", "note": "[Compound 40, (S)—N^4-(5-(tert-butyl)-4-methylisoxazol-3-yl)-N^1-(5-(1-methyl-1H-pyrazol-4-yl)pyridin-3-yl)-2,3-dihydro-18-indene-1,4-diamine]", "pIC50": "> 7.30"},
      {"compound": "Clc1cncc(N[C@H]2CCc3c(Nc4noc5ccccc45)cccc32)c1", "note": "[Compound 42j]", "pIC50": "< 6.30"},
      {"compound": "Cn1cc(-c2cncc(N[C@H]3CCc4c(Nc5cnn(C(C)(C)C)c5)cccc43)n2)cn1", "note": "[Compound 39a]", "pIC50": "< 6.30"},
      {"compound": "Cn1nc(Nc2cccc3c2CC[C@@H]3Nc2cncc(Cl)c2)cc1C(F)(F)F", "note": "[Compound 42d]", "pIC50": "< 6.30"},
      {"compound": "COc1ccc(F)c(NC(=O)c2cccc3c2CC[C@@H]3Oc2cnc3cn(C)nc3c2)c1", "note": "[Compound 76ay]", "pIC50": "> 7.30"},
      {"compound": "Cn1cc(-c2cncc(N[C@H]3CCc4c(Nc5nc(C(C)(C)C)no5)cccc43)c2)cn1", "note": "[Compound 42k]", "pIC50": "6.30 to 6.70"},
      {"compound": "CN(c1cncc(-c2cnn(C)c2)c1)[C@H]1CCc2c(C(=O)Nc3cccc(C4CC4)c3)cc(F)cc21", "note": "[Compound 52, (S)—N-(3-cyclopropylphenyl)-6-fluoro-1-(methyl (5-(1-methyl-1H-pyrazol-4-yl)pyridin-3-yl)amino)-2,3-dihydro-1H-indene-4-carboxamide]", "pIC50": "> 7.30"},
      {"compound": "Cc1cccc(NC(=O)c2cccc3c2CC[C@@H]3N(C)c2cnc3cn(C)nc3c2)c1F", "note": "[Compound 80j]", "pIC50": "> 7.30"},
      {"compound": "CN(C)Cc1ccc(NC(=O)c2cccc3c2CC[C@@H]3Oc2cnc3cnn(C)c3c2)cc1", "note": "[Compound 76aa]", "pIC50": "6.70 to 7.30"},
      {"compound": "Cn1cc(-c2cncc(N[C@H]3CCc4c(NC(=O)NC5CCCCC5)cccc43)n2)cn1", "note": "[Compound 65a]", "pIC50": "> 7.30"},
      {"compound": "Cn1cc(-c2cncc(N[C@H]3CCc4c(C(=O)Nc5ccccc5F)cccc43)c2)cn1", "note": "[Compound 14ae]", "pIC50": "> 7.30"},
      {"compound": "Cc1cccc(C(=O)Nc2ccc(F)c3c2CC[C@@H]3Nc2cnc3cn(C)nc3c2)c1F", "note": "[Compound 83, (S)-2-fluoro-N-(7-fluoro-1-((2-methyl-2H-pyrazolo[4,3-b]pyridin-6-yl)amino)-2,3-dihydro-1H-inden-4-yl)-3-methylbenzamide]", "pIC50": "> 7.30"},
      {"compound": "CN1CC(c2cccc(NC(=O)c3cccc4c3CC[C@@H]4Oc3cncc(-c4cnn(C)c4)c3)c2)C1", "note": "[Compound 19o]", "pIC50": "6.70 to 7.30"},
      {"compound": "Cn1cc(-c2cncc(NC3CC(O)c4c(NC(=O)c5ccc(C(F)(F)F)cc5)cccc43)c2)cn1", "note": "(centres unmarked) [Compound 71a, N-(3-hydroxy-1-((5-(1-methyl-1H-pyrazol-4-yl)pyridin-3-yl)amino)-2,3-dihydro-1H-inden-4-yl)-4-(trifluoromethyl)benzamide]", "pIC50": "6.70 to 7.30"},
      {"compound": "Cn1cc(-c2cncc(NC3CC(=O)c4c(NC(=O)c5ccc(C(F)(F)F)cc5)cccc43)c2)cn1", "note": "(centres unmarked) [Compound 70, N-(1-((5-(1-methyl-1H-pyrazol-4-yl)pyridin-3-yl)amino)-3-oxo-2,3-dihydro-1H-inden-4-yl)-4-(trifluoromethyl)benzamide]", "pIC50": "< 6.30"},
      {"compound": "Cc1cccc(C(=O)Nc2cccc3c2CC[C@@H]3Nc2cncc(N3CCN(C)CC3)n2)c1", "note": "[Compound 31, (S)-3-methyl-N-(1-((6-(4-methylpiperazin-1-yl)pyrazin-2-yl)amino)-2,3-dihydro-1H-inden-4-yl)benzamide]", "pIC50": "6.30 to 6.70"},
      {"compound": "Cn1ncc2ccc(N[C@H]3CCc4c(C(=O)Nc5cccc(C6CC6)c5)cccc43)cc21", "note": "[Compound 74b]", "pIC50": "< 6.30"},
      {"compound": "Cc1cc2ncc(N[C@H]3CCc4c(C(=O)Nc5cccc(C6CC6)c5)cccc43)cn2n1", "note": "[Compound 74f]", "pIC50": "> 7.30"},
      {"compound": "Cn1cc(-c2cncc(N[C@H]3CCc4c(C(=O)Nc5cccc(C6CC6)c5)ccc(F)c43)c2)cn1", "note": "[Compound 50, (S)—N-(3-cyclopropylphenyl)-7-fluoro-1-((5-(1-methyl-1H-pyrazol-4-yl)pyridin-3-yl)amino)-2,3-dihydro-1H-indene-4-carboxamide]", "pIC50": "> 7.30"},
      {"compound": "Cc1ccc(F)c(NC(=O)c2cccc3c2CC[C@@H]3Oc2cnc3cnn(C)c3c2)c1", "note": "[Compound 76ah]", "pIC50": "> 7.30"},
      {"compound": "Cn1cc(-c2cncc(N[C@H]3CCc4c(Nc5nc(C(C)(C)C)cs5)ccc(F)c43)c2)cn1", "note": "[Compound 42t]", "pIC50": "6.70 to 7.30"},
      {"compound": "CN(C)Cc1cccc(C(=O)Nc2cccc3c2CC[C@@H]3Oc2cc(-c3cnn(C)c3)cnc2N)c1", "note": "[Compound 3j]", "pIC50": "< 6.30"},
      {"compound": "Cn1ncc2ncc(O[C@H]3CCc4c(C(=O)Nc5cncc(C6CC6)c5)cccc43)cc21", "note": "[Compound 76at]", "pIC50": "> 7.30"},
      {"compound": "Cn1cc(-c2cncc(N[C@H]3CCc4c(NC(=O)c5ccc6c(c5)OC(F)(F)O6)cccc43)n2)cn1", "note": "[Compound 24, (S)-2,2-difluoro-N-(1-((6-(1-methyl-1H-pyrazol-4-yl)pyrazin-2-yl)amino)-2,3-dihydro-1H-inden-4-yl)benzo[d][1,3]dioxole-5-carboxamide]", "pIC50": "> 7.30"},
      {"compound": "Cn1cc(-c2cncc(NC3CCc4c(Nc5cc(C(C)(C)C)on5)cccc43)c2)cn1", "note": "(centres unmarked) [Compound 48, N^4-(5-(tert-butyl)isoxazol-3-yl)-N^1-(5-(1-methyl-1H-pyrazol-4-yl)pyridin-3-yl)-2,3-dihydro-1H-indene-1,4-diamine]", "pIC50": "> 7.30"},
      {"compound": "Cc1ccc(NC(=O)c2cccc(C3CC3)c2)c2c1[C@@H](Oc1cnc3cnn(C)c3c1)CC2", "note": "[Compound 78b]", "pIC50": "< 6.30"},
      {"compound": "Cn1cc(-c2cncc(N[C@H]3CCc4c(C(=O)Nc5cccc(CN6CCCC6)c5)cccc43)c2)cn1", "note": "[Compound 14av]", "pIC50": "6.70 to 7.30"},
      {"compound": "Cn1cc2ncc(N[C@H]3CCc4c(Nc5noc(C67CC(C6)C7)n5)cccc43)cc2n1", "note": "[Compound 93q]", "pIC50": "> 7.30"},
      {"compound": "CN1CCN(Cc2ccc(NC(=O)c3cccc4c3CC[C@@H]4Nc3cncc(-c4cnn(C)c4)c3)cc2)CC1", "note": "[Compound 14aj]", "pIC50": "6.70 to 7.30"},
      {"compound": "Cn1cc(-c2cncc(N[C@H]3CCc4c(C(=O)OC5CCCCC5)cccc43)n2)cn1", "note": "[Compound 62, cyclohexyl(S)-1-((6-(1-methyl-1H-pyrazol-4-yl)pyrazin-2-yl)amino)-2,3-dihydro-1H-indene-4-carboxylate]", "pIC50": "< 6.30"},
      {"compound": "Cn1cc(-c2cncc(N[C@H]3CCc4c(C(=O)Nc5cccc(C6CC6)c5)ccnc43)c2)cn1", "note": "[Compound 55, (S)—N-(3-cyclopropylphenyl)-7-((5-(1-methyl-1H-pyrazol-4-yl)pyridin-3-yl)amino)-6,7-dihydro-5H-cyclopenta[b]pyridine-4-carboxamide]", "pIC50": "6.30 to 6.70"},
      {"compound": "Cn1cc2cc(N[C@H]3CCc4c(C(=O)Nc5cccc(C6CC6)c5)cccc43)cnc2n1", "note": "[Compound 74c]", "pIC50": "6.70 to 7.30"},
      {"compound": "COC(=O)Nc1cccc2c1CC[C@@H]2Nc1cncc(-c2cnn(C)c2)n1", "note": "[Compound 29, methyl(S)-(1-((6-(1-methyl-1H-pyrazol-4-yl)pyrazin-2-yl)amino)-2,3-dihydro-1H-inden-4-yl) carbamate]", "pIC50": "< 6.30"},
      {"compound": "CN1CCC[C@H]1c1nc(Nc2cccc3c2CC[C@@H]3Nc2cnc3cn(C)nc3c2)no1", "note": "[Compound 93c]", "pIC50": "6.70 to 7.30"},
      {"compound": "Cn1cc(-c2cnc(N)c(O[C@H]3CCc4c(C(=O)Nc5cccc(CN6CCCC6)c5)cccc43)c2)cn1", "note": "[Compound 5c]", "pIC50": "6.70 to 7.30"}
    ]}
  ]
}
